Experimental data: patent US5698547A, “Cephalosporin antibiotics” (Microcide Pharmaceuticals, Inc., priority 1995, dated 1997)
Converted amounts (≈) assume the structure as drawn. Structures can show the parent of a compound that is named as a salt.

system: S. aureus Col (Meth^R) (lac^-); test: MIC by agar dilution, S. aureus Col (Meth^R) (lac^-); assay type: cell-based; conditions: Staphylococcus aureus; agar dilution; S. aureus Col (Meth^R) (lac^-); read-out: MIC
Method: The compounds of the invention were evaluated against several β-lactamresistant bacteria strains by determining the minimum inhibitory concentration (MIC, μg/ml) of each compound with respect to each strain. The MIC, the lowest concentration of antibiotic which inhibits growth of the test organism, was determined by the agar dilution method.
To determine the MIC for bacterial isolates, the test compound was incorporated in a series of two-fold dilutions into liquified Mueller-Hinton agar. Upon solidification, a number of different bacterial strains were spot inoculated with a replicating device onto the agar surface. […] The procedures used in these studies have been standardized by the National Committee for Clinical Laboratory Standards (NCCLS), as per the NCCLS publication entitled METHODS FOR DILUTION ANTIMICROBIAL SUSCEPTIBILITY TESTS (1991), which is incorporated herein by reference.
Aliquots of antimicrobial agents were prepared in phosphate buffered saline (PBS) at pH 7.2. Tween 20 or DMSO was used as a solubilizing vehicle as needed. Standard methods of vortexing, sonicating and gentle heat were used to facilitate solubilizing the test agent. Typically, the concentration of the stock solution was 10× that of the highest drug concentration tested. A 1.28 mg/mL stock solution was used with a subsequent highest working concentration of 128 μg/mL. Serial two-fold dilutions were done through ≤0.25 μg/mL. Each drug level was tested in duplicate. Two-fold drug dilutions were done in sterile 50 mL tubes with a final drug volume of 5 mL. Upon the addition of 45 mL of molten agar, a 10-fold dilution resulted. Two, 25 mL. plates were then poured into 15×150 mm square Petri plates with grids and allowed to harden.
A control plate with a reference drug, either cefotaxime, vancomycin or imipenem, was used as the positive growth control. Stock concentrations of reference antibiotics were prepared and frozen at -80° C. Upon preparation, the control plates were sealed and stored in the refrigerator for up to 1 week prior to use; however, imipenem control plates had to be prepared just prior to use. All test plates were used within 24 hours of preparation.
Satisfactory results were obtained where the inoculum contained about 10^4 colony forming units (cfu) ±0.5 logs. Starting with pure cultures of the test isolates on agar plates, a few isolated colonies were transferred to a tube of nutrient broth and allowed to grow 4-6 hours at 35°-36° C. to reach log-phase growth. Dropwise addition of the broth culture to PBS was done to match a 0.5 McFarland turbidity standard equal to 10^8 cfu/mL. This was further diluted ten-fold in PBS to reach a working inoculum concentration of 10^7 cfu/mL. When 1 μL of the working inoculum was applied to the agar surface a concentration of about 10^4 cfu per spot was obtained.
Disposable sterile 1 μL loops were used to inoculate test plates, with each isolate in a designated grid on the agar plate. An alternate method of inoculation involved the use of a replica plater, a device with 48 steel pins allowing the simultaneous inoculation of multiple isolates. After the spots had dried, the plates were incubated at 35°-36° C. for 16-20 hours. Endpoints were assessed as the minimum inhibitory concentration (MIC) of antimicrobial agent.
The novel agents of this invention are notable for their enhanced activity against S. aureus Col and Enterococci (E. faecium and E. faecalis). The S. aureus Col strain is a high-level PBP2a producer, whereas S. aureus Col 8A, its isogenic partner, lacks PBP2a. […] Thus, the compounds of the present invention are effective against PBP2a-producing bacteria.

Compound | MIC
O=C(Cc1ccccc1)N[C@@H]1C(=O)N2C(C(=O)O)=C(Sc3ccc(Cl)cc3)CS[C@H]12 [Cmpd 3, (7R)-7-[(Phenylacetyl)amino]-3-(p-chlorophenylthio)-3-cephem-4-carboxylic acid] | 2 µg/mL (≈ 4.34 µM)
O=C(Cc1ccccc1)N[C@@H]1C(=O)N2C(C(=O)O)=C(Sc3ccccc3-n3cccn3)CS[C@H]12 [Cmpd 132, (7R)-7-[(Phenylacetyl)amino]-3-(2-(pyrazol-1-yl)phenylthio)-3-cephem-4-carboxylic acid] | 8 µg/mL (≈ 16.2 µM)
O=C(Cc1ccccc1)N[C@@H]1C(=O)N2C(C(=O)O)=C(Sc3cccc(I)c3)CS[C@H]12 [Cmpd 2, (7R)-7-[(Phenylacetyl)amino]-3-(m-iodophenylthio)-3-cephem-4-carboxylic acid] | 2 µg/mL (≈ 3.62 µM)
Nc1nc(/C(=N/O)C(=O)N[C@@H]2C(=O)N3C(C(=O)O)=C(Sc4ccccc4I)CS[C@H]23)cs1 [Cmpd 22, (7R)-7-[(Z)-2-(aminothiazol-4-yl)-2-(hydroxyimino)acetamido]-3-(o-iodophenylthio)-3-cephem-4-carboxylic acid] | 2 µg/mL (≈ 3.31 µM)
N=C(N)SCc1ccccc1SC1=C(C(=O)O)N2C(=O)[C@@H](NC(=O)CSCCCI)[C@H]2SC1 [Cmpd 134, (7R)-7-[(3-iodoprop-1-ylthioacetyl)amino]-3-(2-isothiouroniummethylphenylthio)-3-cephem-4-carboxylate, inner salt] | 2 µg/mL
CSc1ccccc1SC1=C(C(=O)O)N2C(=O)[C@@H](NC(=O)Cc3ccccc3)[C@H]2SC1 [Cmpd 44, (7R)-7-[(Phenylacetyl)amino]-3-(2-methylthiophenylthio)-3-cephem-4-carboxylic acid] | 2 µg/mL (≈ 4.23 µM)
O=C(Cc1ccccc1)N[C@@H]1C(=O)N2C(C(=O)O)=C(Sc3cc(F)ccc3Br)CS[C@H]12 [Cmpd 33, (7R)-7-[(Phenylacetyl)amino]-3-(2-bromo-5-fluorophenylthio)-3-cephem-4-carboxylic acid] | 1 µg/mL (≈ 1.91 µM)
O=C(Cc1ccccc1)N[C@@H]1C(=O)N2C(C(=O)[O-])=C(Sc3ccc[n+](Cc4ccccc4)c3-c3ccccc3)CS[C@H]12 [Cmpd 83, (7R)-7-[(Phenylacetyl)amino]-3-(2-phenyl-N-benzylpyridin-3-iumthio)-3-cephem-4-carboxylate] | 4 µg/mL (≈ 6.74 µM)
N#Cc1ccc(SC2=C(C(=O)O)N3C(=O)[C@@H](NC(=O)Cc4ccccc4)[C@H]3SC2)c(C#N)c1 [Cmpd 51, (7R)-7-[(Phenylacetyl)amino]-3-(2,4-dicyanophenylthio)-3-cephem-4-carboxylic acid] | 4 µg/mL (≈ 8.39 µM)
Nc1nc(/C(=N/OCCF)C(=O)N[C@@H]2C(=O)N3C(C(=O)O)=C(Sc4ccnn4-c4ccccc4)CS[C@H]23)cs1 [Cmpd 90, (7R)-7-[(Z)-2-(aminothiazol-4-yl)-2-(2-fluoroethyloxyimino)acetamido]-3-(1-N-phenylpyrazol-5-ylthio)-3-cephem-4-carboxylic acid] | 8 µg/mL (≈ 13.6 µM)
O=C(Cc1ccccc1)N[C@@H]1C(=O)N2C(C(=O)O)=C(Sc3cc(Cl)ccc3Cl)CS[C@H]12 [Cmpd 16, (7R)-7-[(Phenylacetyl)amino]-3-(2,5-dichlorophenylthio)-3-cephem-4-carboxylic acid] | < 0.5 µg/mL
COc1ccc(Cc2ccc(-c3ccccc3SC3=C(C(=O)O)N4C(=O)[C@@H](NC(=O)Cc5ccccc5)[C@H]4SC3)s2)cc1 [Cmpd 43, (7R)-7-[(Phenylacetyl)amino]-3-(2-(2-(4-methoxyphenylmethyl)thien-5-yl)phenylthio)-3-cephem-4-carboxylic acid] | 4 µg/mL (≈ 6.36 µM)
O=C(Cc1ccccc1)N[C@@H]1C(=O)N2C(C(=O)O)=C(Sc3snnc3-c3ccccc3)CS[C@H]12 [Cmpd 93, (7R)-7-[(Phenylacetyl)amino]-3-(4-phenyl-1,2,3-thiadiazol-5-ylthio)-3-cephem-4-carboxylic acid] | 2 µg/mL (≈ 3.92 µM)
Cn1cc[n+](Cc2ccc(-c3ccccc3SC3=C(C(=O)[O-])N4C(=O)[C@@H](NC(=O)Cc5ccccc5)[C@H]4SC3)s2)c1 [Cmpd 45, (7R)-7-[(Phenylacetyl)amino]-3-(2-(2-(N-methylimidazoliummethyl)thien-5-yl)phenylthio)-3-cephem-4-carboxylic acid] | 4 µg/mL (≈ 6.64 µM)
O=C(Cc1ccccc1)N[C@@H]1C(=O)N2C(C(=O)O)=C(Sc3ccc(-c4ccccc4)cc3)CS[C@H]12 [Cmpd 8, (7R)-7-[(Phenylacetyl)amino]-3-(4-biphenylthio)-3-cephem-4-carboxylic acid] | 4 µg/mL (≈ 7.96 µM)
N=C(N)SCc1ccc(SC2=C(C(=O)O)N3C(=O)[C@@H](NC(=O)Cc4ccccc4)[C@H]3SC2)cc1 [Cmpd 63, (7R)-7-[(Phenylacetyl)amino]-3-(4-isothiouroniummethylphenylthio)-3-cephem-4-carboxylate, inner salt] | 4 µg/mL
O=Cc1ccccc1SC1=C(C(=O)O)N2C(=O)[C@@H](NC(=O)Cc3ccccc3)[C@H]2SC1 [Cmpd 50, (7R)-7-[(Phenylacetyl)amino]-3-(2-formylphenylthio)-3-cephem-4-carboxylic acid] | 2 µg/mL (≈ 4.4 µM)
O=C(COc1ccc(Cl)cc1)N[C@@H]1C(=O)N2C(C(=O)O)=C(Sc3cc(Cl)ccc3Cl)CS[C@H]12 [Cmpd 31, (7R)-7-[(p-Chlorophenoxyacetyl)amino]-3-(2,5-dichlorophenylthio)-3-cephem-4-carboxylic acid] | 1 µg/mL (≈ 1.83 µM)
N#CCC(=O)N[C@@H]1C(=O)N2C(C(=O)O)=C(Sc3cccnc3-c3ccccc3)CS[C@H]12 [Cmpd 85, (7R)-7-[(Cyanoacetyl)amino]-3-(2-phenylpyridin-3-ylthio)-3-cephem-4-carboxylic acid] | 4 µg/mL (≈ 8.84 µM)
N=C(N)NCc1ccccc1SC1=C(C(=O)O)N2C(=O)[C@@H](NC(=O)Cc3ccccc3)[C@H]2SC1 [Cmpd 128, (7R)-7-[(Phenylacetyl)amino]-3-(2-guanidiniummethylphenylthio)-3-cephem-4-carboxylate, inner salt] | 8 µg/mL
O=C(Cc1ccccc1)N[C@@H]1C(=O)N2C(C(=O)O)=C(Sc3cccc(-c4ccccc4)c3)CS[C@H]12 [Cmpd 10, (7R)-7-[(Phenylacetyl)amino]-3-(3-biphenylthio)-3-cephem-4-carboxylic acid] | 8 µg/mL (≈ 15.9 µM)
O=C(Cc1ccccc1)N[C@@H]1C(=O)N2C(C(=O)O)=C(Sc3ccc(CSc4ncn[nH]4)cc3)CS[C@H]12 [Cmpd 65, (7R)-7-[(Phenylacetyl)amino]-3-(4-(1,2,4-triazol-5-ylthiomethyl)phenylthio)-3-cephem-4-carboxylic acid] | 8 µg/mL (≈ 14.8 µM)
O=C(Cc1ccccc1)N[C@@H]1C(=O)N2C(C(=O)O)=C(Sc3ccccc3CSc3ncn[nH]3)CS[C@H]12 [Cmpd 67, (7R)-7-[(Phenylacetyl)amino]-3-(2-(1,2,4-triazol-5-ylthiomethyl)phenylthio)-3-cephem-4-carboxylic acid] | 4 µg/mL (≈ 7.41 µM)
O=C(Cc1ccccc1)N[C@@H]1C(=O)N2C(C(=O)O)=C(Sc3cccc4ccccc34)CS[C@H]12 [Cmpd 54, (7R)-7-[(Phenylacetyl)amino]-3-(1-naphthalenylthio)-3-cephem-4-carboxylic acid] | 1 µg/mL (≈ 2.1 µM)
O=C(Cc1ccccc1)N[C@@H]1C(=O)N2C(C(=O)O)=C(Sc3ccc4c(c3)oc3ccccc34)CS[C@H]12 [Cmpd 7, (7R)-7-[(Phenylacetyl)amino]-3-(dibenzofuranyl-3-thio)-3-cephem-4-carboxylic acid] | 4 µg/mL (≈ 7.74 µM)
O=C(Cc1ccccc1)N[C@@H]1C(=O)N2C(C(=O)O)=C(Sc3ccccc3CO)CS[C@H]12 [Cmpd 38, (7R)-7-[(Phenylacetyl)amino]-3-(2-hydroxymethylphenylthio)-3-cephem-4-carboxylic acid] | 4 µg/mL (≈ 8.76 µM)
N#CCC(=O)N[C@@H]1C(=O)N2C(C(=O)O)=C(Sc3ccccc3C#N)CS[C@H]12 [Cmpd 52, (7R)-7-[(Cyanoacetyl)amino]-3-(2-cyanophenylthio)-3-cephem-4-carboxylic acid] | 4 µg/mL (≈ 9.99 µM)
O=C(Cc1ccccc1)N[C@@H]1C(=O)N2C(C(=O)O)=C(Sc3ccc(-c4ccccc4)cc3F)CS[C@H]12 [Cmpd 13, (7R)-7-[(Phenylacetyl)amino]-3-(2-fluoro-4-biphenylthio)-3-cephem-4-carboxylic acid] | 4 µg/mL (≈ 7.68 µM)
